Assay results reported in patent US6350812B1, “Hydrogels containing triblock copolymers, and preparation and use thereof” (Centre National de la Recherche Scientifique (CNRS), priority 1995, dated 2002).

Key:
[1] = as described for the commercial colorant; cited from earlier work
[2] = Incorporation and retention of a hydrophobic substance in the hydrogel on addition of water and washing with water; type: physicochemical; details: acetone solution, water added
Method: 1 g of copolymer of Example 1.3 and 5 mg of commercial colorant Yellow OB are dissolved in 2 cm^3 of acetone.
This is a very hydrophobic, water-insoluble colorant. Distilled water (4 cm^3) is gradually added. A gel is obtained which occupies virtually all the volume of the starting acetone solution.
Hydrogels in which progesterone is incorporated were prepared in an analogous way. […] When administered by subcutaneous injection, the gel constitutes a bioresorbable soft implant which gradually releases the progesterone.

SMILES: Cc1ccccc1N=Nc1c(N)ccc2ccccc12 [Yellow OB]
- solubility of the colorant in water [1]: water-insoluble
- crystallisation / precipitation of the hydrophobic substance on addition of water or washing [2]: the colorant crystallizes during the addition of water
